Measured values from paper PMC6048268, “Resveratrol Inhibits Key Steps of Steroid Metabolism in a Human Estrogen-Receptor Positive Breast Cancer Model: Impact on Cellular Proliferation” (Frontiers in Pharmacology, 2018).
Where “and” joins values, the source holds several entries; their conditions need not be identical. Equal values may be shown once. Read-outs that look alike come from different tables or passages of the source.

Assays:
MCF-7 cells [1] = conditions: for mean formation rate: MCF-7, 100 nM DHEA; for Vmax: MCF-7, precursor DHEA or E1 0–100 nM, Michaelis–Menten
Protocol: (§1) Briefly, cartridges were preconditioned with 2 × 1.0 ml acetonitrile and 3 × 1.0 ml ammonium acetate buffer (10 mM, pH = 5.0), and the samples were loaded onto the columns. After washing with 1 × 1.0 ml ammonium acetate buffer (10 mM, pH = 5.0) and 2 × 1.0 ml acetonitrile/ammonium acetate buffer (10 mM, pH 5.0) 10:90 (v/v), the analytes were eluted using 2 × 650 μl acetonitrile/ammonium acetate buffer (10 mM, pH = 5.0) 95:5 (v/v) and evaporated until dry. Subsequently, samples were reconstituted in 270 μl acetonitrile/ammonium acetate buffer (10 mM, pH = 5.0) 25:75 (v/v) and stored at -80°C until further LC–HRMS analysis.
(§2) After media collection, cell monolayers were washed five times with 2.0 ml DPBS, detached using 400 μl TrypLE® solution (37°C, 5 min), mixed with 600 μl DPBS and transferred into sample vials. Aliquots of these suspensions (100 μl each) were diluted and counted using the Casy® TT Cell Counter to determine the exact number of cells per sample well. The remaining cell suspensions (900 μl each) were gently centrifuged (1000 rpm, 8 min), and the supernatants were discarded. The cell pellets were subsequently resuspended in 100 μl aqueous ammonium acetate buffer (10 mM, pH = 5.0) and lysed by five freeze-thaw-cycles in liquid nitrogen (3 min each), followed by thawing at ambient temperature. Ammonium acetate buffer (1000 μl) was added, and the suspensions were centrifuged (14000 rpm, 5 min). Subsequently, the supernatants were concentrated using the same SPE protocol as described above. All processed samples were then stored at -80°C until further LC–HRMS analysis. For each condition, three biologically independent experiments were performed; the reported values represent the overall means ± SD of all values.
(§3) LC was performed with an UltiMate 3000 RSLC-series system coupled to a maXis HD ESI-Qq-TOF mass spectrometer (Bruker Corporation, Bremen, Germany). A Phenomenex Luna® 3 μm C18(2) 100 Å LC column (250 mm × 4.6 mm I.D.; Phenomenex, Inc., Torrance, CA, United States), preceded by a Hypersil® BDS-C18 guard column (5 μm, 10 mm × 4.6 mm I.D.; Thermo Fisher Scientific, Inc.) was used for the separation of the analytes at a flow rate of 1.0 ml/min and a temperature of 43°C. […] The ESI ion source settings were as follows: capillary voltage: -4.5 kV; dry gas flow rate: 8.0 l/min N2; nebulizer: 1.0 bar N2; and dry temperature: 200°C. The ion transfer parameters were set to 400 Vpp funnel RF and 300 Vpp multipole RF, the quadrupole ion energy was 8.0 eV, and the collision cell parameters were as follows: collision RF, 1100 Vpp; collision energy, 10.0 eV; transfer time, 38 μs; and pre-pulse storage, 18 μs. In the range of m/z 150–500, full-scan mass spectra were recorded.
(§4) The modes of inhibition were subsequently determined from Lineweaver–Burk plots, and the corresponding Ki values were calculated from Dixon plots using GraphPad Prism 6.0.

MDA-MB-231 cells [2] = conditions: for mean formation rate: MDA-MB-231, 100 nM DHEA; for Km / Vmax: MDA-MB-231, precursor DHEA or E1 0–100 nM, Michaelis–Menten
Protocol: as §1, §2, §3, §4

[3] = test system: steroid metabolism in MCF-7 cells; test: Inhibition of steroid metabolism by RES in MCF-7 cells (LC–HRMS); conditions: for formation rate in the presence of RES: 48 h
Protocol: as §1, §2, §3, §4

MDA-MB-231 cells [4] = test: Metabolism of RES in MDA-MB-231 cells (HPLC)
Protocol: (§5) After 48 h, the cellular media (100 μl) were mixed with 200 μl ice-cold (-20°C) methanol and subsequently centrifuged (14000 rpm, 5 min). The clear supernatants were then diluted 1:1 with aqueous ammonium acetate buffer (5 mM, pH = 7.4), and 80 μl of the samples were injected onto the HPLC column. […] Calibration of the chromatogram was accomplished using the external standard method.
as §4

MCF-7 cells [5] = test: Metabolism of RES in MCF-7 cells (HPLC); conditions: MCF-7, Hill model
Protocol: as §5, §4

[6] = MCF-7, 100 nM DHEA + 100 μM RES

Compound	mean formation rate (MCF-7 cells [1]; 48 h)	Vmax (MCF-7 cells [1]; 48 h)	mean formation rate (MDA-MB-231 cells [2]; 48 h)	Km (MDA-MB-231 cells [2]; 48 h)	Vmax (MDA-MB-231 cells [2]; 48 h)	Km ([3]; MCF-7, 0 μM RES)	Vmax ([3]; MCF-7, 0 μM RES)	Km ([3]; MCF-7, 5 μM RES)	Km ([3]; MCF-7, 10 μM RES)	Vmax ([3]; MCF-7, 10 μM RES)	Km ([3]; MCF-7, 25 μM RES)	Vmax ([3]; MCF-7, 25 μM RES)	Km ([3]; MCF-7, 50 μM RES)	Vmax ([3]; MCF-7, 50 μM RES)	Km ([3]; MCF-7, 100 μM RES)	Vmax ([3]; MCF-7, 100 μM RES)	Vmax ([3]; MCF-7, 5 μM RES)	formation rate (MCF-7 cells [1]; MCF-7, 100 nM E1, 48 h)	formation rate (MDA-MB-231 cells [2]; MDA-MB-231, 100 nM E1, 48 h)	other results
C[C@]12CC[C@H]3[C@@H](CCC4=CC(=O)CC[C@@]43C)[C@@H]1CC[C@@H]2O [T, testosterone]	4.78 ± 0.38 fmol/10^6 cells/h	9.96 ± 1.42^∗ fmol/10^6 cells/h	57.1 ± 6.2 fmol/10^6 cells/h	56.3 ± 21.4 nM	91.2 ± 15.9 fmol/10^6 cells/h	108 ± 6.3 nM	9.95 ± 0.42 fmol/10^6 cells/h	107 ± 5.9 nM	108 ± 3.8 nM	18.4 ± 0.7^∗ fmol/10^6 cells/h	106 ± 2.4 nM	26.7 ± 0.4^∗ fmol/10^6 cells/h	106 ± 4 nM	35.9 ± 0.8^∗ fmol/10^6 cells/h	103 ± 4.8 nM	39.7 ± 1.1^∗ fmol/10^6 cells/h	–	–	–	formation rate in the presence of RES [3, 6]: 19.4 ± 1.6 fmol/10^6 cells/h
O=C(O)[C@H]1O[C@@H](Oc2cc(O)cc(/C=C/c3ccc(O)cc3)c2)[C@H](O)[C@@H](O)[C@@H]1O (relative stereo) [RES-3G, trans-resveratrol-3-O-(β-D-glucuronide)]	–	–	–	–	–	–	–	–	–	–	–	–	–	–	–	–	–	–	–	maximum metabolite formation rate (MDA-MB-231 cells [4]; 25 μM RES, 48 h): 23.9 ± 2.4 pmol/10^6 cells/h; Vmax (MDA-MB-231 cells [4]; MDA-MB-231, Michaelis–Menten model): 32.8 ± 8.6 pmol/10^6 cells/h; Vmax (MDA-MB-231 cells [4]; MDA-MB-231, substrate inhibition model): 43.4 ± 2.2 pmol/10^6 cells/h; Slope (n) (MCF-7 cells [5]): 1.86 ± 0.18; Vmax (MCF-7 cells [5]): 422.9 ± 38.9 pmol/10^6 cells/h
O=S(=O)(O)Oc1ccc(/C=C/c2cc(O)cc(OS(=O)(=O)O)c2)cc1 [RES-DS, trans-resveratrol-3-O-4′-O-disulfate]	–	–	–	–	–	–	–	–	–	–	–	–	–	–	–	–	–	–	–	formation of RES metabolite (MDA-MB-231 cells [4]; RES 0–100 μM, 48 h): below the detection limit
C[C@]12CC[C@H](OS(=O)(=O)O)CC1=CC[C@@H]1[C@@H]2CC[C@]2(C)C(=O)CC[C@@H]12 [DHEA-S, dehydroepiandrosterone-3-O-sulfate]	870.0 ± 79.1 fmol/10^6 cells/h	2873.0 ± 327.4 fmol/10^6 cells/h and 2873.0 ± 527.4 fmol/10^6 cells/h and 2873.0 ± 327.4^∗ fmol/10^6 cells/h	0.14 ± 0.02 fmol/10^6 cells/h	55.4 ± 20.5 nM	0.22 ± 0.04 fmol/10^6 cells/h	329 ± 52.2 nM	2873.0 ± 57.4 fmol/10^6 cells/h	312 ± 71.9 nM	324 ± 53.7 nM	2280.1 ± 81.4^∗ fmol/10^6 cells/h	404 ± 93.1 nM	1797.6 ± 48.9^∗ fmol/10^6 cells/h	403 ± 34.7 nM	993.5 ± 74.8^∗ fmol/10^6 cells/h	385 ± 46.6 nM	522.5 ± 54.8^∗ fmol/10^6 cells/h	2766.2 ± 53.9 fmol/10^6 cells/h	–	–	–
C[C@]12CC[C@@H]3c4ccc(O[C@@H]5O[C@H](C(=O)O)[C@@H](O)[C@H](O)[C@H]5O)cc4CC[C@H]3[C@@H]1CC[C@@H]2O [E2-G, 17β-estradiol-3-O-(β-D-glucuronide)]	–	7.29 ± 1.36 fmol/10^6 cells/h and 7.29 ± 1.36^∗ fmol/10^6 cells/h	–	87.9 ± 32.2 nM	0.33 ± 0.07 fmol/10^6 cells/h	124 ± 8.4 nM	7.29 ± 0.36 fmol/10^6 cells/h	135 ± 5.9 nM	136 ± 6 nM	4.98 ± 0.14^∗ fmol/10^6 cells/h	132 ± 8 nM	2.60 ± 0.12^∗ fmol/10^6 cells/h	126 ± 13.2 nM	1.51 ± 0.11^∗ fmol/10^6 cells/h	132 ± 3.9 nM	0.77 ± 0.02^∗ fmol/10^6 cells/h	7.00 ± 0.20 fmol/10^6 cells/h	–	–	formation rate (MCF-7 cells [1]; human, 48 h, 100 nM): 3.23 ± 0.45 fmol/10^6 cells/h; formation rate (MDA-MB-231 cells [2]; human, 48 h, 100 nM): 0.18 ± 0.02 fmol/10^6 cells/h
C[C@]12CC[C@@H]3c4ccc(OS(=O)(=O)O)cc4CC[C@H]3[C@@H]1CC[C@@H]2O [E2-S, 17β-estradiol-3-O-sulfate]	–	24.7 ± 4.9 fmol/10^6 cells/h and 24.7 ± 4.9^∗ fmol/10^6 cells/h	–	38 ± 13.6 nM	0.16 ± 0.02 fmol/10^6 cells/h	104 ± 15.5 nM	24.7 ± 4.9 fmol/10^6 cells/h	106 ± 15.9 nM	99.3 ± 12.8 nM	2.34 ± 0.19^∗ fmol/10^6 cells/h	94.9 ± 14.7 nM	1.01 ± 0.10^∗ fmol/10^6 cells/h	101 ± 11.2 nM	0.56 ± 0.01^∗ fmol/10^6 cells/h	99.7 ± 6 nM	0.27 ± 0.01^∗ fmol/10^6 cells/h	6.64 ± 0.58^∗ fmol/10^6 cells/h	11.8 ± 0.8 fmol/10^6 cells/h	0.12 ± 0.02 fmol/10^6 cells/h	–
C[C@]12CC[C@@H]3c4ccc(O)cc4CC[C@H]3[C@@H]1C[C@@H](O)[C@@H]2O [E3, 16α-hydroxy-17β-estradiol]	–	–	–	–	–	–	–	–	–	–	–	–	–	–	–	–	–	0.57 ± 0.06 fmol/10^6 cells/h	below the LLOQ	–
C[C@]12CC[C@@H]3c4ccc(OS(=O)(=O)O)cc4CC[C@H]3[C@@H]1CCC2=O [E1-S, estrone-3-O-sulfate]	–	30.4 ± 2.5 fmol/10^6 cells/h and 30.4 ± 2.5^∗ fmol/10^6 cells/h	–	120 ± 68.1 nM	1.08 ± 0.38 fmol/10^6 cells/h	102 ± 12.9 nM	30.4 ± 0.5 fmol/10^6 cells/h	94 ± 12 nM	100 ± 8.6 nM	2.54 ± 0.21^∗ fmol/10^6 cells/h	120 ± 15.5 nM	1.23 ± 0.11^∗ fmol/10^6 cells/h	109 ± 4.1 nM	0.57 ± 0.02^∗ fmol/10^6 cells/h	105 ± 9 nM	0.28 ± 0.01^∗ fmol/10^6 cells/h	4.51 ± 0.33^∗ fmol/10^6 cells/h	15.1 ± 0.8 fmol/10^6 cells/h	0.49 ± 0.07 fmol/10^6 cells/h	–
C[C@]12CCC(=O)C=C1CC[C@@H]1[C@@H]2CC[C@]2(C)C(=O)CC[C@@H]12 [AD, 4-androstene-3,17-dione]	68.5 ± 11.1 fmol/10^6 cells/h	147.4 ± 8.1^∗ fmol/10^6 cells/h	888.9 ± 60.1 fmol/10^6 cells/h	126 ± 36.6 nM	1994.0 ± 364.5 fmol/10^6 cells/h	115 ± 9.6 nM	147.4 ± 13.1 fmol/10^6 cells/h	104 ± 10.4 nM	102 ± 7.9 nM	172.6 ± 7.7^∗ fmol/10^6 cells/h	112 ± 10.7 nM	242.0 ± 14.4^∗ fmol/10^6 cells/h	106 ± 4.2 nM	295.3 ± 9.4^∗ fmol/10^6 cells/h	99.6 ± 8.2 nM	328.8 ± 12.9^∗ fmol/10^6 cells/h	148.5 ± 9.4 fmol/10^6 cells/h	–	–	formation rate in the presence of RES [3, 6]: 165.1 ± 18.7 fmol/10^6 cells/h
C[C@]12CC[C@@H]3c4ccc(O)cc4CC[C@H]3[C@@H]1CC[C@@H]2O [E2, 17β-estradiol]	–	628.6 ± 62.0 fmol/10^6 cells/h	–	174 ± 94.1 nM	703.0 ± 164.5 fmol/10^6 cells/h	169 ± 11.7 nM	628.6 ± 72.0 fmol/10^6 cells/h	146 ± 15.6 nM	155 ± 9.7 nM	1001.4 ± 43.0^∗ fmol/10^6 cells/h	153 ± 13.6 nM	1079.8 ± 71.4^∗ fmol/10^6 cells/h	172 ± 14.3 nM	1247.3 ± 56.2^∗ fmol/10^6 cells/h	174 ± 12 nM	1302.2 ± 64.6^∗ fmol/10^6 cells/h	816.4 ± 76.6^∗ fmol/10^6 cells/h	233.9 ± 13.4 fmol/10^6 cells/h	258.9 ± 25.1 fmol/10^6 cells/h	formation rate in the presence of RES ([3]; MCF-7, 100 nM E1 + 100 μM RES): 471.5 ± 43.6 fmol/10^6 cells/h
